Test results reported in patent US11951178B2, “Methods for treating subjects suffering from acute myeloid leukemia with FLT3 ligand-targeted miR-150 nanoparticles” (University of Cincinnati, priority 2016, dated 2024).

Columns and labels:
[1] = Blood cell counts of normal mice after nanoparticle/drug administration (effects on normal hematopoiesis)
Protocol: FIG. 12 provides an analysis of the potential influence of the nanoparticles on hematopoietic system in normal mice, C57BL/6 wild type mice were treated with 0.5 mg/kg PBS (Control/Ctrl), G7-NH2, G7-Flt3L, G7-NH2-miR-150 or G7-Flt3L-miR-150, i.v., every other day, for ten times. Mice were sacrificed 12 weeks after the last administration, subsequent Wright-Giemsa stained PB and BM, and H&E stained spleen and liver of the animals are shown.

[2] = tested on: primary MLL-AF9 AML cells; test: MLL-AF9 AML secondary BMT recipient mouse model; format: in vivo; details: MLL-AF9 AML mice; nanoparticles 0.5 mg/kg i.v., JQ1 50 mg/kg i.p., every other day; PBS control 54 days
Protocol: The same MLL-AF9 AML mouse model was employed. […] All the P values were detected by log-rank test.
After the onset of secondary AML, the recipient mice were treated with PBS control, 0.5 mg/kg G7-NH2-miR-150, or G7-Flt3L-miR-150, i.v., every other day, until the PBS-treated control group all died of leukemia.
For the JQ1 and nanoparticle combination treatment experiment, after the onset of AML, the recipient mice were treated with PBS control, or 50 mg/kg JQ1, i.p., alone, or together with 0.5 mg/kg G7-NH2-miR-150, or G7-Flt3L-miR-150, i.v., every other day, until the PBS-treated control group all died of leukemia.
The in vivo therapeutic effects of the miR-150 nanoparticles were also investigated in a MLL-rearranged leukemic mouse model.

[3] = normal C57BL/6 mice, 50 mg/kg JQ1 and/or 0.5 mg/kg nanoparticles, i.v., every day for 15 days, 4 weeks after the last administration

`Cc1sc2c(c1C)C(c1ccc(Cl)cc1)=N[C@@H](CC(=O)OC(C)(C)C)c1nnc(C)n1-2` [JQ1] gave a BA [1, 3] of 0.01 ± 0.0 K/μl, an EO [1, 3] of 0.04 ± 0.04 K/μl and an LY [1, 3] of 5.57 ± 0.83 K/μl. It also gave an MO [1, 3] of 0.36 ± 0.32 K/μl, an NE [1, 3] of 1.2 ± 0.62 K/μl and a PLT [1, 3] of 688 ± 110.3 K/μl. The RBC [1, 3] was 8.12 ± 1.13 M/μl, the WBC [1, 3] was 7.18 ± 0.76 K/μl and the “noticeable (side) effects on normal hematopoiesis” value ([1]; normal mice in vivo) was “did not cause any noticeable side effects”. The median survival [2] was 69.5 days.
